In US12359238B2 (priority 2017, dated 2025):

Experiments:
[1] = biological target: T1, FGM (FAD-GDH-MCD): Burkholderia cepacia FAD-GDH alpha subunit fused to minimal cytochrome domain MCR-2 of MamP (magnetoovoid bacterium MO-127), full DNA constru (Burkholderia lata, UniProt Q397F4); assay type: biochemical
T1 construct: gamma co-expressed; E. coli BL21

[2] = biological target: FGM-S247PDAz: FGM (Burkholderia cepacia FAD-GDH-MCD) variant S247PrK (S247X, SEQ ID NO: 20), clicked to PDAz linker (Burkholderia lata, UniProt Q397F4); settings: read-out: KM^app (electrochemical); glucose; 300 mV vs. Ag/AgCl, 100 mM acetate buffer pH=5.0, RT; non-linear fit
Method: (§1) The current from each glucose concentration (10 μM-10 mM) was measured in triplicates; curves of the mean currents are presented with standard deviations. […] The current was measured in triplicates and the mean current values were used for the linear regression and are presented with error bars (FIG. 18H);
(§2) Pyrrolysyl orthogonal translation system (pylOTS) DNA sequence was amplified from the pEVOL plasmid using polymerase chain reaction (PCR) and cloned into the backbone of pec86 plasmid using Gibson's assembly to generate a new plasmid called pec86-pylOTS (FIG. 15A). pylOTS allows the continuous expression of an orthogonal translation system (orthogonal tRNA and aminoacyl tRNA synthetase) for incorporation of PrK (1) using the amber (TAG) stop codon suppression, while the pec86 plasmid is responsible for the continuous expression of E. coli cytochrome c maturation system. […] Four different TAG mutants were planned using site-directed mutagenesis, according to GDH crystal structure. Our guiding rational for mutation sites was to control the enzyme orientation in a manner that will allow proximity of 14 Å or less between the FAD or heme site and the electrode, without interference with the protein structure and correct folding. The sites that were tested were R42TAG and S247TAG, which are in close proximity to the FAD binding-site, while T558TAG (FIG. 11C, right panel) is in a close proximity to the heme domain.
(§3) The azide in (2) was clicked to the alkyne residue of (FIG. 11B, 1). 3 μM of protein sample was mixed with 400 μM (2), 2 mM tris pH=8.2, 10 mM KCl, 1 mM Cu(I), 1.2 mM THPTA, 2.5 mM NaAsc and 10% Dimethyl sulfoxide (DMSO). The reaction was incubated for 1 h in the dark at room temperature with shaking, then transferred to 4° C. for two days before use.

[3] = biological target: FGM-S247PCA: FGM (Burkholderia cepacia FAD-GDH-MCD) variant S247PrK (S247X, SEQ ID NO: 20), EDC-NHS coupled to PCA linker (Burkholderia lata, UniProt Q397F4); settings: read-out: KM^app (electrochemical); glucose; 300 mV vs. Ag/AgCl, 100 mM acetate buffer pH=5.0, RT; non-linear fit
Method: as §1, §2, §3

[4] = tested on: FGM-T558PDAz: FGM (Burkholderia cepacia FAD-GDH-MCD) variant T558PrK (T558X, SEQ ID NO: 22), clicked to PDAz linker; settings: read-out: KM^app (electrochemical); glucose; 300 mV vs. Ag/AgCl, 100 mM acetate buffer pH=5.0, RT; non-linear fit
Method: as §1, §2, §3

[5] = biological target: GDH-S247PDAz: Burkholderia cepacia FAD-GDH variant S247PrK lacking the MCD domain, clicked to PDAz linker (Burkholderia lata, UniProt Q397F4); settings: read-out: KM^app (electrochemical); glucose; 300 mV vs. Ag/AgCl, 100 mM acetate buffer pH=5.0, RT; non-linear fit
Method: as §1, §2, §3

In the case of `OC[C@H]1OC(O)[C@H](O)[C@@H](O)[C@@H]1O` (stereo partly drawn) [glucose], the “KM^app value times higher for FGM compared to GDH” value [1] is reported as “ca. 3 times”, the “catalytic efficiency (k) times higher compared to GDH” value ([1]; FGM compared to GDH, D-glucose) is reported as “more than 3 times” and the Km [2] is reported as 1890 ± 100 µM. It also gave a Km [3] of 1820 ± 180 µM, a Km [4] of 1580 ± 220 µM and a Km [5] of 1550 ± 160 µM.
